Results: patent US4297357A, “N-Phenethylacetamide compounds and process for preparation thereof” (Daiichi Seiyaku Co., Ltd., priority 1978, dated 1981)
Structures can show the parent of a compound that is named as a salt.

Legend:
Stress Ulcer = test: Inhibitory Effect on Stress Ulcer in Rat (Water Immersion Restraint Method); type: in vivo; settings: water immersion restraint 21° C.; for inhibition in vivo at 100 mg/kg / inhibition in vivo at 200 mg/kg / inhibition in vivo at 400 mg/kg: Rattus norvegicus
Method: In this experiment, test compounds were administered as the free base, in the form of the hydrochloric acid salts or in the form of the hydrate. | Inhibitory Effect on Stress Ulcer in Rat |Inhibitory Effect on Stress Ulcer in Rat |Inhibitory Effect on Stress Ulcer in Rat Note 2. Inhibitory effect on Stress Ulcer was examined according to Water Immersion Restraint Method disclosed in Japanese Journal of Pharmacology, Vol. 18, 9 (1968). Note 3. As test animals, seven rats weighing about 300 g were used for each dosage level. Note 4. Test compounds were injected intraperitoneally or administered orally before 30 minutes of water immersion restrain. Note 5. Test animals were immersed and restrained in water at 21° C. for 20 hours in experiment of Tables 2 and 3 and at 21° C. for 7 hours in experiment of Table 4.

[1] = Stability of Mixture of Hydrate with Various Kinds of Additives (one month storage), color change; type: physicochemical; set-up: key to color change: --: no color change; ±: slight color change; +: clear color change
Method: (§1) It was also confirmed by thin layer chromatography that the hydrate was stable in methanol at room temperature for 48 hours. This means that it is possible to use methanol as a solvent in producing pharmaceutical preparations. It was further confirmed that a mixture of the hydrate of this invention with various kinds of additives such as carriers, diluents, etc., was stable under accelerated conditions, i.e., under high humidity at an elevated temperature for one month or under the light irradiation from 2,500 lux for one month.
Stability of Mixture of Hydrate with Various
Kinds of Additives (one month storage)
The meaning of the symbols is as follows.
Samples were prepared by well mixing 100 mg of the hydrate with 100 mg of
the additive except for magnesium stearate and talc. In case of using
magnesium stearate or talc as the additive, 10 mg of the hydrate was used

[2] = stability of hydrate in methanol by thin layer chromatography; type: physicochemical; settings: room temperature, 48 hours
Method: as §1

[3] = isothermal absorption curve, stability of hydrate under high humidity; type: physicochemical
Method: as §1

cardiovascular system = settings: Pharmacometrics, Vol. 8, 835-846 (1974); cited from earlier work
ulcer = settings: The Pharmacological Basis of Therapeutics, 4th Edition, 234 (1970); cited from earlier work
[4] = test system: Secretion of Gastric Acids Induced by Insuline; test: Inhibitory effect on secretion of gastric acids induced by insuline (modified Shield's Method); type: in vivo; settings: rat, i.v., insuline 4 ug/kg
Method: Accordingly, the compounds of this invention are very useful as a unique type of anti-ulcer agent. […] The results obtained in this experiment are shown in Table 5 and Table 6 below. |Inhibitory Effects on Secretion of Gastric Acids |Induced by Insuline (dose: 4 ug/kg, i.v.)

[5] = test system: Secretion of Gastric Acids Induced by Carpronium Chloride; test: Inhibitory effect on secretion of gastric acids induced by carpronium chloride (modified Shield's Method); type: in vivo; settings: rat, i.v., carpronium chloride 8-10 μg/rat
Method: Accordingly, the compounds of this invention are very useful as a unique type of anti-ulcer agent. […] The results obtained in this experiment are shown in Table 5 and Table 6 below. |Inhibitory Effects on Secretion of Gastric Acids Induced |by Carponium Chloride (dose: 8-10 μg/rat, i.v.)

[6] = ip, 20 h, intraperitoneal, 100 mg/kg

COc1ccc(CCNC(=O)CNc2ccccc2)cc1OC [Compound 3, 2-(phenylamino)-N-(3,4-dimethoxyphenethyl)acetamide hydrochloride]
inhibition in vivo at 100 mg/kg (Stress Ulcer; po, 20 h, 100 mg/kg): 20%
inhibition in vivo at 200 mg/kg (Stress Ulcer; po, 20 h): 20%
inhibition in vivo at 400 mg/kg (Stress Ulcer; po, 20 h): 25%

COc1ccc(C(N)=O)c(NCC(=O)NCCc2ccc(OC)c(OC)c2)c1
inhibition in vivo at 100 mg/kg (Stress Ulcer; [6]): 44%

COc1ccc(CCNC(=O)CNc2cccc(C(N)=O)c2)cc1OC [Compound 4, 2-(3-carbamoylphenylamino)-N-(3,4-dimethoxyphenethyl)acetamide.3H2 O]
color change ([1]; additive Calcium Phosphate Dibasic, one month storage, condition shown as drawing 6 (high humidity at an elevated temperature)): --
color change ([1]; additive Calcium Phosphate Dibasic, one month, light 2500 lux): --
color change ([1]; additive Cornstarch, one month storage, condition shown as drawing 6 (high humidity at an elevated temperature)): --
color change ([1]; additive Cornstarch, one month, light 2500 lux): --
color change ([1]; additive Crystalline Cellulose, one month storage, condition shown as drawing 6 (high humidity at an elevated temperature)): --
color change ([1]; additive Crystalline Cellulose, one month, light 2500 lux): --
color change ([1]; additive Hydroxypropylcellulose, one month storage, condition shown as drawing 6 (high humidity at an elevated temperature)): --
color change ([1]; additive Hydroxypropylcellulose, one month, light 2500 lux): --
color change ([1]; additive Hydroxypropylmethylcellulose, one month storage, condition shown as drawing 6 (high humidity at an elevated temperature)): ±
color change ([1]; additive Hydroxypropylmethylcellulose, one month, light 2500 lux): --
color change ([1]; additive Lactose, one month storage, condition shown as drawing 6 (high humidity at an elevated temperature)): --
color change ([1]; additive Lactose, one month, light 2500 lux): --
color change ([1]; additive Macrogol 6000, one month storage, condition shown as drawing 6 (high humidity at an elevated temperature)): --
color change ([1]; additive Macrogol 6000, one month, light 2500 lux): --
color change ([1]; additive Magnesium Stearate, one month storage, condition shown as drawing 6 (high humidity at an elevated temperature)): --
color change ([1]; additive Magnesium Stearate, one month, light 2500 lux): --
color change ([1]; additive Mannitol, one month storage, condition shown as drawing 6 (high humidity at an elevated temperature)): --
color change ([1]; additive Mannitol, one month, light 2500 lux): --
color change ([1]; additive Polyvinyl Alcohol, one month storage, condition shown as drawing 6 (high humidity at an elevated temperature)): --
color change ([1]; additive Polyvinyl Alcohol, one month, light 2500 lux): --
color change ([1]; additive Sucrose, one month storage, condition shown as drawing 6 (high humidity at an elevated temperature)): --
color change ([1]; additive Sucrose, one month, light 2500 lux): --
color change ([1]; additive Talc, one month storage, condition shown as drawing 6 (high humidity at an elevated temperature)): --
color change ([1]; additive Talc, one month, light 2500 lux): --
stability of mixture with additives ([1]; in words, high humidity at an elevated temperature for one month or light irradiation from 2,500 lux for one month): stable
stability in methanol [2]: stable
stability under high humidity ([3]; high humidity at an elevated temperature): very stable
relative critical humidity ([3]; isothermal absorption curve): had not relative critical humidity
inhibition in vivo at 100 mg/kg (Stress Ulcer; po, 7 h, 100 mg/kg): 23%
inhibition in vivo at 200 mg/kg (Stress Ulcer; po, 7 h): 36%
inhibition in vivo at 400 mg/kg (Stress Ulcer; po, 7 h): 70%

COc1ccc(CCNC(=O)CNc2cc(N)ncn2)cc1OC
inhibition in vivo at 100 mg/kg (Stress Ulcer; [6]): 27%

NCCc1ccc(O)c(O)c1 [Dopamine, 3,4-dihydroxyphenethylamine]
action on cardiovascular system (cardiovascular system): acts strongly on cardiovascular system
anti-ulcer activity (ulcer): has anti-ulcer activity

COc1ccc(CCNC(=O)CNc2cc(Cl)ccc2C(N)=O)cc1OC [drawing 11]
inhibition in vivo at 100 mg/kg (Stress Ulcer; [6]): 38%

COc1ccc(CCNC(=O)CNc2ccc(Cl)c(C(N)=O)c2)cc1OC
inhibition in vivo at 100 mg/kg (Stress Ulcer; [6]): 35%

COc1ccc(CCNC(=O)CNc2cccc(C(N)=O)c2)cc1OC [drawing 16]
Inhibitory Effect (Stress Ulcer; intraperitoneal, 100 mg/kg, 20 hours): 52%

COc1ccc(CCNC(=O)CNc2cccc(C(N)=O)c2)cc1OC.Cl [Compound 2, 2-(3-carbamoylphenylamino)-N-(3,4-dimethoxyphenethyl)acetamide hydrochloride]
inhibition in vivo at 100 mg/kg (Stress Ulcer; po, 20 h, 100 mg/kg): 5%
inhibition in vivo at 200 mg/kg (Stress Ulcer; po, 20 h): 21%
inhibition in vivo at 400 mg/kg (Stress Ulcer; po, 20 h): 33%
Inhibition ([4]; 10 mg/kg): 80%
Inhibition ([5]; 50 mg/kg): 0%
Inhibition ([5]; 100 mg/kg): 0%

COc1ccc(CCNC(=O)CNc2cccc(S(N)(=O)=O)c2)cc1OC
inhibition in vivo at 100 mg/kg (Stress Ulcer; [6]): 47%

COc1ccc(CCNC(=O)CNc2ccc(C(N)=O)cc2)cc1OC
inhibition in vivo at 100 mg/kg (Stress Ulcer; [6]): 20%

COc1ccc(CCNC(=O)CNC(=O)c2ccccc2OC)cc1OC
inhibition in vivo at 100 mg/kg (Stress Ulcer; [6]): 50%

COc1ccc(CCNC(=O)CNc2cccc(C(N)=O)c2)cc1OC [drawing 15]
inhibition in vivo at 100 mg/kg (Stress Ulcer; [6]): 53%

COc1ccc(CCNC(=O)CNc2cccc(Cl)c2)cc1OC
inhibition in vivo at 100 mg/kg (Stress Ulcer; [6]): 36%

CCN1CCCC1CNC(=O)c1cc(S(N)(=O)=O)ccc1OC (centres unmarked) [Sulpiride, N-[(1-ethyl-2-pyrrolidinyl)methyl]-2-methoxy-5-sulfamoylbenzamide, reference compound]
inhibition in vivo at 100 mg/kg (Stress Ulcer; [6]): 27%
inhibition in vivo at 100 mg/kg (Stress Ulcer; po, 7 h, 100 mg/kg): 29%
inhibition in vivo at 200 mg/kg (Stress Ulcer; po, 7 h): 20%
inhibition in vivo at 400 mg/kg (Stress Ulcer; po, 7 h): 39%
inhibition in vivo at 100 mg/kg (Stress Ulcer; po, 20 h, 100 mg/kg): 5%
inhibition in vivo at 200 mg/kg (Stress Ulcer; po, 20 h): 4%
inhibition in vivo at 400 mg/kg (Stress Ulcer; po, 20 h): 11%

CNc1nc(Cl)c(SC)c(NCC(=O)NCCc2ccc(OC)c(OC)c2)n1
inhibition in vivo at 100 mg/kg (Stress Ulcer; [6]): 17%

COc1ccc(CCNC(=O)CNc2cc(Cl)ccc2C(N)=O)cc1OC [Compound 1, 2-(2-carbamoyl-5-chlorophenylamino)-N-(3,4-dimethoxyphenethyl)acetamide]
inhibition in vivo at 100 mg/kg (Stress Ulcer; po, 20 h, 100 mg/kg): 5%
inhibition in vivo at 200 mg/kg (Stress Ulcer; po, 20 h): 17%
inhibition in vivo at 400 mg/kg (Stress Ulcer; po, 20 h): 18%
Inhibition ([4]; 50 mg/kg): 50%
Inhibition ([5]; 50 mg/kg): 0%

COc1ccc(CCNC(=O)CNc2ccccc2)cc1OC [drawing 8]
inhibition in vivo at 100 mg/kg (Stress Ulcer; [6]): 42%

COc1ccc(CCNC(=O)CNc2cc(OC)c(C(N)=O)cc2Cl)cc1OC
inhibition in vivo at 100 mg/kg (Stress Ulcer; [6]): 21%

COc1ccc(CCNC(=O)CNc2ccc(Cl)cc2C(N)=O)cc1OC
inhibition in vivo at 100 mg/kg (Stress Ulcer; [6]): 34%
